The record followed here is US7432045B2 (priority 2003, dated 2008).

Like-named read-outs stand apart in the source and are kept apart here. Peptide text beside a SMILES is read from it.

One data set addresses T1, trypsin (Sus scrofa, UniProt P00761).
T1 construct: purchased BioWhittaker 17-160E
The experiment in a line: Trypsinization of peptides. As to conditions: 0.005 or 0.01% trypsin, 1 h at 37° C. The method, then: Trypsinization of peptides: Peptides dissolved in serum-free DMEM were exposed to 0.005 or 0.01% trypsin for 1 h at 37° C. The trypsin was then inactivated with a 1.3-fold molar excess of soybean trypsin inhibitor and the ability of the peptides to inactivate virions was tested as described above (centrifugation assay). In controls, trypsin was inactivated before it was added to the peptides.
In Panel B, peptides in serum-free medium were pre-treated with active trypsin (open bars) or inactivated trypsin (shaded bars) for 1 h at 37° C. before they were added to virions for 1 h at 37° C. (see Example 1). The treated virions were then pelleted and resuspended in serum-supplemented medium and assayed for infectivity without further trypsinization. The peptide concentrations were as high or higher than those used in Panel A: […] TAT-C, 50 μM bKLA, 200 μM EB and bHOM-9. Trypsin concentrations used in both Panels A and B, were 0.005% (for bKLA, EB and bHOM-9) or 0.01% (for TAT-C and the ‘no peptide’ control).

In a further data set the test system is hrR3 virions. The data set can be described thus: Trypsinization of peptide-treated virions. It counts as cell-based, HSV-1. The note with it: for IC50: 1 h at 37° C.
For the next data set, the system named is cornea. The experiment in a line: In vivo peptide toxicity, cornea. Further details: species or system BALB/C mice. The note with it: for blepharitis: four times a day for seven days. The method, then:
(i) Cornea: Four-6-week-old female BALB/C mice (Harlan Sprague Dawley, Indianapolis, Ind.) were anesthetized by halothane inhalation (3-5%). A 2.0 μL drop of serum-free 5×DMEM solution containing 6.1 mM EB, 6.1 mM EBX, 7.5 mM TAT-C, 7.5 mM n50,51 TAT-C, 7.5 mM TAT-Cd, or 11.2 mM bHOMd or serum-free DMEM only (control) was then placed on the cornea and the mice were returned to their cages. Each group consisted of 5 mice, except for 11.2 mM bHOMd, and 7.5 mM TAT-Cd, which consisted of 4 mice. Only the right eye in each mouse received the peptide. Treatments were given 4 times per day at least 2 hrs apart for 7 days. On days 1, 5, and 7, the mice were examined microscopically for evidence of blepharitis, punctate keratopathy, dendrite ulceration and geographic ulceration. Damage to the corneal epithelium was assessed by staining with 1.0% […] and examination under a microscope with blue light. Blepharitis was scored: 1+ for noticeable puffy eyelids, 2+ for puffy eyelids with moderate crusting, 3+ for eye 50% swollen shut with severe crusting, and 4+ for eye totally swollen and crusted shut (Brandt et al., 1992). Punctate keratopathy, dendrite ulceration, and geographic ulceration were scored: 1+ for <25% of the cornea involved, 2+ for 25-50% involved, 3+ for 50-75% involved, and 4+ for >75% involved. The mean disease score for each group of mice on each day was calculated by the sum of disease scores in each group on each day divided by the numbers of mice in that group. On day 7, following the last treatment, the mice were sacrificed and the eyes were removed, fixed in 10% formalin, embedded in paraffin, sectioned (5μ each), and stained with hematoxylin and eosin as we have described previously (Brandt et al., 1996). Sections were then examined for evidence of damage to the cornea, sclera, lens, and retina.

Data set [1] concerns Influenza virus strain PR8. On the set-up: species or system mice. As to conditions: mouse, in vivo.
The test system of another data set is HSV-1 KOS mutant hrR3. The data set can be described thus: LacZ+ virus (hrR3) entry assay with pre-adsorbed virus (entry block). It counts as cell-based.

T1 sequence (P00761 9-231): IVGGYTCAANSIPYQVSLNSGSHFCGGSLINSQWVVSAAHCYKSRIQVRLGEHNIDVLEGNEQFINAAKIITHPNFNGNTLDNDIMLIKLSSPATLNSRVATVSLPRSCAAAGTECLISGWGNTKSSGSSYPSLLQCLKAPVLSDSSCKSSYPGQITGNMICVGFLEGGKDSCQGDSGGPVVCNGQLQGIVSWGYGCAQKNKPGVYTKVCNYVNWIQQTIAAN

Turning to `CC(C)C[C@H](NC(=O)[C@H](C)NC(=O)[C@H](CC(C)C)NC(=O)[C@H](CC(C)C)NC(=O)[C@@H](NC(=O)[C@H](C)NC(=O)[C@@H]1CCCN1C(=O)[C@H](CC(C)C)NC(=O)[C@H](CC(C)C)NC(=O)[C@H](C)NC(=O)[C@@H](NC(=O)[C@H](C)NC(=O)[C@H](C)NC(=O)[C@H](CCCCN)NC(=O)[C@H](CCCCN)NC(=O)[C@H](CCCNC(=N)N)NC(=O)[C@@H](N)CCCNC(=N)N)C(C)C)C(C)C)C(=O)N[C@@H](CC(C)C)C(=O)N[C@@H](C)C(=O)N1CCC[C@H]1C(=O)O` [EB] (H-RRKKAAVALLPAVLLALLAP-OH), the “effect of trypsinization of the peptide on its antiviral activity” value on trypsin was “completely abolished their antiviral activity”. Moreover, the “effect of trypsin on infectivity of peptide-treated virions” value in the data set with hrR3 virions was “did not have any effect”. Also, the blepharitis result in the data set on cornea was “no effect”. In the data set on cornea (mouse, in vivo), the corneal pathology entry is listed as “no evidence of corneal pathology”. The compound also gave a mice protected in data set [1] of 90%. The “reduction of the number of lacZ+ cells” value with HSV-1 KOS mutant hrR3 (25 μM peptide, pre-adsorbed virus) was more than 90%. For the same compound, in the data set with HSV-1 KOS mutant hrR3 (50 μM, 1 hour periods between 1 and 4 hours post-infection), the virus entry inhibited was 70-80%. Moreover, the concentration for half-maximal inhibition (IC50) with HSV-1 KOS mutant hrR3 (FIG. 7B, read-out: inhibition of entry of pre-adsorbed virus IC50) was 15 µM; with HSV-1 KOS mutant hrR3 (read-out: Entry Blocking Activity IC50) it was 15 to 26 µM.

With `N=C(N)NCCC[C@H](NC(=O)CN)C(=O)N[C@@H](CCCCN)C(=O)N[C@@H](CCCCN)C(=O)N[C@@H](CCCNC(=N)N)C(=O)N[C@@H](CCCNC(=N)N)C(=O)N[C@@H](CCC(N)=O)C(=O)N[C@@H](CCCNC(=N)N)C(=O)N[C@@H](CCCNC(=N)N)C(=O)N[C@@H](CCCNC(=N)N)C(=O)N[C@@H](CS)C(=O)O` [TAT-C, NH2-GRKKRRQRRRC-COOH], the “effect of trypsinization of the peptide on its antiviral activity” value at trypsin is reported as “completely abolished their antiviral activity”. The “effect of trypsin on infectivity of peptide-treated virions” value in the data set with hrR3 virions is “no effect on virus infectivity”. In addition, the IC50 came to 86 µM with hrR3 virions (read-out: IC50 after exposure of treated virus to 0.01% active trypsin); 90 µM in the data set on hrR3 virions (read-out: IC50 after exposure of treated virus to inactivated trypsin); 3 µM in the data set with HSV-1 KOS mutant hrR3 (33° C., read-out: Entry Block 33° C. IC50); 3 µM in the data set on HSV-1 KOS mutant hrR3 (33° C., read-out: Entry Block IC50); 3 µM with HSV-1 KOS mutant hrR3 (33° C., read-out: inhibition of entry IC50); 3.1 µM in the data set on HSV-1 KOS mutant hrR3 (37° C., read-out: Entry Block 37° C. IC50). The blepharitis entry in the data set with cornea is reported as “mild blepharitis”. In data set [1], the mice protected turned out to be 90%. In the data set with HSV-1 KOS mutant hrR3 (FIGS. 16A, B), the “temperature dependence of inhibition of entry and virus inactivation” value is on record as “completely temperature-independent”.
